How the values were obtained:
[1] = Drug uptake in anesthetized cynomolgus monkey brain frontal lobe after 85 mins postinjection; assay type: ADME, organism-based, Macaca fascicularis; conditions: in vivo
Caudate [2] = assay: Drug uptake in anesthetized cynomolgus monkey brain caudate after 6.5 mins postinjection; assay type: ADME, organism-based, Macaca fascicularis, Caudate nucleus; conditions: in vivo
Midbrain [3] = assay: Drug uptake in anesthetized cynomolgus monkey brain midbrain after 55 mins postinjection; assay type: ADME, organism-based, Macaca fascicularis; set-up: unit not given here; conditions: in vivo
[4] = Drug uptake in anesthetized cynomolgus monkey brain cerebellum after 65 mins postinjection; assay type: ADME, organism-based, Macaca fascicularis; conditions: in vivo
[5] = Drug uptake in anesthetized cynomolgus monkey brain cerebellum after 27.5 mins postinjection; assay type: ADME, organism-based, Macaca fascicularis; conditions: in vivo
[6] = Ratio of drug uptake in frontal lobe to cerebellum in anesthetized cynomolgus monkey after 145 mins postinjection; assay type: ADME, organism-based, Macaca fascicularis; conditions: in vivo
Midbrain [7] = assay: Drug uptake in anesthetized cynomolgus monkey brain midbrain after 22.5 mins postinjection; assay type: ADME, organism-based, Macaca fascicularis; set-up: unit not given here; conditions: in vivo, 0.375 h
Thalamus [8] = assay: Drug uptake in anesthetized cynomolgus monkey brain thalamus after 125 mins postinjection; assay type: ADME, organism-based, Macaca fascicularis; set-up: unit not given here; conditions: in vivo
[9] = Drug uptake in anesthetized cynomolgus monkey brain cerebellum after 165 mins postinjection; assay type: ADME, organism-based, Macaca fascicularis; conditions: in vivo, 2.75 h
Putamen [10] = assay: Drug uptake in anesthetized cynomolgus monkey brain putamen after 0.5 mins postinjection; assay type: ADME, organism-based, Macaca fascicularis; conditions: in vivo
[11] = Drug uptake in anesthetized cynomolgus monkey brain occipital lobe after 35 mins postinjection; assay type: ADME, organism-based, Macaca fascicularis; conditions: in vivo
Pons [12] = assay: Drug uptake in anesthetized cynomolgus monkey brain pons after 15.5 mins postinjection; assay type: ADME, organism-based, Macaca fascicularis; conditions: in vivo
Midbrain [13] = assay: Drug uptake in anesthetized cynomolgus monkey brain midbrain after 9.5 mins postinjection; assay type: ADME, organism-based, Macaca fascicularis; set-up: unit not given here; conditions: in vivo
[14] = Drug uptake in anesthetized cynomolgus monkey brain occipital lobe after 185 mins postinjection; assay type: ADME, organism-based, Macaca fascicularis; conditions: in vivo
[15] = Drug uptake in anesthetized cynomolgus monkey brain frontal lobe after 15.5 mins postinjection; assay type: ADME, organism-based, Macaca fascicularis; conditions: in vivo
[16] = Drug uptake in anesthetized cynomolgus monkey brain cerebellum after 45 mins postinjection; assay type: ADME, organism-based, Macaca fascicularis; conditions: in vivo, 0.75 h
[17] = Drug uptake in anesthetized cynomolgus monkey brain occipital lobe after 125 mins postinjection; assay type: ADME, organism-based, Macaca fascicularis; conditions: in vivo
[18] = Drug uptake in anesthetized cynomolgus monkey brain cerebellum after 55 mins postinjection; assay type: ADME, organism-based, Macaca fascicularis; conditions: in vivo
[19] = Drug uptake in anesthetized cynomolgus monkey brain frontal lobe after 4.5 mins postinjection; assay type: ADME, organism-based, Macaca fascicularis; conditions: in vivo, 0.075 h
[20] = Drug uptake in anesthetized cynomolgus monkey brain frontal lobe after 165 mins postinjection; assay type: ADME, organism-based, Macaca fascicularis; conditions: in vivo, 2.75 h
Pons [21] = assay: Drug uptake in anesthetized cynomolgus monkey brain pons after 135 mins postinjection; assay type: ADME, organism-based, Macaca fascicularis; conditions: in vivo, 2.25 h
[22] = Ratio of drug uptake in occipital lobe to cerebellum in anesthetized cynomolgus monkey after 175 mins postinjection; assay type: ADME, organism-based, Macaca fascicularis; conditions: in vivo
Putamen [23] = assay: Drug uptake in anesthetized cynomolgus monkey brain putamen after 135 mins postinjection; assay type: ADME, organism-based, Macaca fascicularis; conditions: in vivo, 2.25 h
[24] = Drug uptake in anesthetized cynomolgus monkey brain cerebellum after 22.5 mins postinjection; assay type: ADME, organism-based, Macaca fascicularis; conditions: in vivo, 0.375 h
[25] = Ratio of drug uptake in putamen to cerebellum in anesthetized cynomolgus monkey after 165 mins postinjection; assay type: ADME, organism-based, Macaca fascicularis; conditions: in vivo, 2.75 h
Caudate [26] = assay: Drug uptake in anesthetized cynomolgus monkey brain caudate after 1.5 mins postinjection; assay type: ADME, organism-based, Macaca fascicularis, Caudate nucleus; conditions: in vivo, 0.025 h
[27] = Drug uptake in anesthetized cynomolgus monkey brain occipital lobe after 225 mins postinjection; assay type: ADME, organism-based, Macaca fascicularis; conditions: in vivo, 3.75 h
[28] = Ratio of drug uptake in midbrain to cerebellum in anesthetized cynomolgus monkey after 225 mins postinjection; assay type: ADME, organism-based, Macaca fascicularis; conditions: in vivo, 3.75 h
Midbrain [29] = assay: Drug uptake in anesthetized cynomolgus monkey brain midbrain after 145 mins postinjection; assay type: ADME, organism-based, Macaca fascicularis; conditions: in vivo
Thalamus [30] = assay: Drug uptake in anesthetized cynomolgus monkey brain thalamus after 175 mins postinjection; assay type: ADME, organism-based, Macaca fascicularis; set-up: unit not given here; conditions: in vivo
Midbrain [31] = assay: Drug uptake in anesthetized cynomolgus monkey brain midbrain after 205 mins postinjection; assay type: ADME, organism-based, Macaca fascicularis; conditions: in vivo
Caudate [32] = assay: Drug uptake in anesthetized cynomolgus monkey brain caudate after 45 mins postinjection; assay type: ADME, organism-based, Macaca fascicularis, Caudate nucleus; conditions: in vivo, 0.75 h
[33] = Ratio of drug uptake in occipital lobe to cerebellum in anesthetized cynomolgus monkey after 115 mins postinjection; assay type: ADME, organism-based, Macaca fascicularis; conditions: in vivo
[34] = Ratio of drug uptake in midbrain to cerebellum in anesthetized cynomolgus monkey after 145 mins postinjection; assay type: ADME, organism-based, Macaca fascicularis; conditions: in vivo
Thalamus [35] = assay: Drug uptake in anesthetized cynomolgus monkey brain thalamus after 205 mins postinjection; assay type: ADME, organism-based, Macaca fascicularis; conditions: in vivo
Midbrain [36] = assay: Drug uptake in anesthetized cynomolgus monkey brain midbrain after 1.5 mins postinjection; assay type: ADME, organism-based, Macaca fascicularis; set-up: unit not given here; conditions: in vivo, 0.025 h
Caudate [37] = assay: Drug uptake in anesthetized cynomolgus monkey brain caudate after 95 mins postinjection; assay type: ADME, organism-based, Macaca fascicularis, Caudate nucleus; conditions: in vivo
Medulla [38] = assay: Drug uptake in anesthetized cynomolgus monkey brain medulla after 235 mins postinjection; assay type: ADME, organism-based, Macaca fascicularis; conditions: in vivo
[39] = Drug uptake in anesthetized cynomolgus monkey brain occipital lobe after 15.5 mins postinjection; assay type: ADME, organism-based, Macaca fascicularis; conditions: in vivo
Caudate [40] = assay: Drug uptake in anesthetized cynomolgus monkey brain caudate after 165 mins postinjection; assay type: ADME, organism-based, Macaca fascicularis, Caudate nucleus; conditions: in vivo, 2.75 h
Medulla [41] = assay: Drug uptake in anesthetized cynomolgus monkey brain medulla after 22.5 mins postinjection; assay type: ADME, organism-based, Macaca fascicularis; conditions: in vivo, 0.375 h
[42] = Ratio of drug uptake in pons to cerebellum in anesthetized cynomolgus monkey after 215 mins postinjection; assay type: ADME, organism-based, Macaca fascicularis; conditions: in vivo
Caudate [43] = assay: Drug uptake in anesthetized cynomolgus monkey brain caudate after 155 mins postinjection; assay type: ADME, organism-based, Macaca fascicularis, Caudate nucleus; conditions: in vivo
Thalamus [44] = assay: Drug uptake in anesthetized cynomolgus monkey brain thalamus after 105 mins postinjection; assay type: ADME, organism-based, Macaca fascicularis; set-up: unit not given here; conditions: in vivo, 1.75 h
Putamen [45] = assay: Drug uptake in anesthetized cynomolgus monkey brain putamen after 3.5 mins postinjection; assay type: ADME, organism-based, Macaca fascicularis; conditions: in vivo
Pons [46] = assay: Drug uptake in anesthetized cynomolgus monkey brain pons after 9.5 mins postinjection; assay type: ADME, organism-based, Macaca fascicularis; conditions: in vivo
[47] = Drug uptake in anesthetized cynomolgus monkey brain frontal lobe after 145 mins postinjection; assay type: ADME, organism-based, Macaca fascicularis; conditions: in vivo
Putamen [48] = assay: Drug uptake in anesthetized cynomolgus monkey brain putamen after 75 mins postinjection; assay type: ADME, organism-based, Macaca fascicularis; set-up: unit not given here; conditions: in vivo, 1.25 h
[49] = Drug uptake in anesthetized cynomolgus monkey brain occipital lobe after 9.5 mins postinjection; assay type: ADME, organism-based, Macaca fascicularis; conditions: in vivo
Caudate [50] = assay: Drug uptake in anesthetized cynomolgus monkey brain caudate after 185 mins postinjection; assay type: ADME, organism-based, Macaca fascicularis, Caudate nucleus; conditions: in vivo

Which results are given for `O=C(OCCC[18F])C1C2CCC(CC1c1cccc(/C=C\I)c1)N2` (stereo not given)?
Drug uptake [1]: 2.71; Drug uptake (Caudate [2]): 2.53; Drug uptake (Midbrain [3]): 4.98; Drug uptake [4]: 4.08; Drug uptake [5]: 4.8; Ratio [6]: 1; Drug uptake (Midbrain [7]): 4.55; Drug uptake (Thalamus [8]): 4.15; Drug uptake [9]: 2.37; Drug uptake (Putamen [10]): 0.01; Drug uptake [11]: 4.01; Drug uptake (Pons [12]): 3.62; Drug uptake (Midbrain [13]): 4; Drug uptake [14]: 2.39; Drug uptake [15]: 2.42; Drug uptake [16]: 4.48; Drug uptake [17]: 2.96; Drug uptake [18]: 4.31; Drug uptake [19]: 1.31; Drug uptake [20]: 2.08; Drug uptake (Pons [21]): 4.08; Ratio [22]: 1.1; Drug uptake (Putamen [23]): 4.16; Drug uptake [24]: 4.78; Ratio [25]: 1.6; Drug uptake (Caudate [26]): 0.16; Drug uptake [27]: 2.09; Ratio [28]: 2; Drug uptake (Midbrain [29]): 4.38; Drug uptake (Thalamus [30]): 3.44; Drug uptake (Midbrain [31]): 3.86; Drug uptake (Caudate [32]): 4.05; Ratio [33]: 1; Ratio [34]: 1.8; Drug uptake (Thalamus [35]): 3.14; Drug uptake (Midbrain [36]): 0.32; Drug uptake (Caudate [37]): 3.82; Drug uptake (Medulla [38]): 3.15; Drug uptake [39]: 3.53; Drug uptake (Caudate [40]): 3.04; Drug uptake (Medulla [41]): 4.94; Ratio [42]: 1.5; Drug uptake (Caudate [43]): 3.19; Drug uptake (Thalamus [44]): 4.44; Drug uptake (Putamen [45]): 1.59; Drug uptake (Pons [46]): 3.47; Drug uptake [47]: 2.29; Drug uptake (Putamen [48]): 4.92; Drug uptake [49]: 3.14; Drug uptake (Caudate [50]): 2.82

Which Drug uptake [1] does the source give for `O=C(OCC[18F])C1C2CCC(CC1c1cccc(/C=C\Br)c1)N2` (stereo not given) here?
Its Drug uptake is 2.88.

And the Drug uptake (Caudate [2])?
The Drug uptake was 1.92.

And the Drug uptake (Midbrain [3])?
The Drug uptake was 4.98.

And the Drug uptake [4]?
Its Drug uptake is 3.5.

And the Drug uptake [5]?
Its Drug uptake is 3.8.

And the Ratio [6]?
Its Ratio is 1.1.

What about the Drug uptake (Midbrain [7]) of the same compound?
Its Drug uptake is 4.28.

What about the Drug uptake (Thalamus [8]) of the same compound?
The Drug uptake was 4.15.

What about the Drug uptake [9] of the same compound?
Its Drug uptake is 2.18.

And the Drug uptake (Putamen [10])?
The Drug uptake was 0.01.

And the Drug uptake [11]?
Its Drug uptake is 3.43.

What about the Drug uptake (Pons [12]) of the same compound?
Its Drug uptake is 3.73.

And the Drug uptake (Midbrain [13])?
The Drug uptake was 3.41.

And the Drug uptake [14]?
Its Drug uptake is 2.37.

What about the Drug uptake [15] of the same compound?
The Drug uptake was 2.38.

And the Drug uptake [16]?
Its Drug uptake is 3.76.

And the Drug uptake [17]?
The Drug uptake was 3.07.

And the Drug uptake [18]?
The Drug uptake was 3.61.

What about the Drug uptake [19] of the same compound?
Its Drug uptake is 1.02.

What about the Drug uptake [20] of the same compound?
Its Drug uptake is 2.38.

What about the Drug uptake (Pons [21]) of the same compound?
The Drug uptake was 4.26.

What about the Ratio [22] of the same compound?
The Ratio was 1.2.

And the Drug uptake (Putamen [23])?
The Drug uptake was 4.4.

And the Drug uptake [24]?
The Drug uptake was 3.81.

What about the Ratio [25] of the same compound?
Its Ratio is 1.8.

And the Drug uptake (Caudate [26])?
Its Drug uptake is 0.04.

And the Drug uptake [27]?
Its Drug uptake is 1.95.

And the Ratio [28]?
The Ratio was 2.3.

And the Drug uptake (Midbrain [29])?
Its Drug uptake is 4.65.

What about the Drug uptake (Thalamus [30]) of the same compound?
Its Drug uptake is 3.36.

And the Drug uptake (Midbrain [31])?
The Drug uptake was 4.

And the Drug uptake (Caudate [32])?
The Drug uptake was 3.83.

And the Ratio [33]?
Its Ratio is 1.1.

What about the Ratio [34] of the same compound?
Its Ratio is 2.

And the Drug uptake (Thalamus [35])?
The Drug uptake was 3.3.

And the Drug uptake (Midbrain [36])?
Its Drug uptake is 0.08.

And the Drug uptake (Caudate [37])?
The Drug uptake was 4.15.

What about the Drug uptake (Medulla [38]) of the same compound?
The Drug uptake was 2.72.

What about the Drug uptake [39] of the same compound?
The Drug uptake was 2.99.

What about the Drug uptake (Caudate [40]) of the same compound?
Its Drug uptake is 3.44.

And the Drug uptake (Medulla [41])?
Its Drug uptake is 4.7.

And the Ratio [42]?
The Ratio was 1.8.

And the Drug uptake (Caudate [43])?
The Drug uptake was 3.47.

And the Drug uptake (Thalamus [44])?
The Drug uptake was 4.23.

And the Drug uptake (Putamen [45])?
Its Drug uptake is 1.

And the Drug uptake (Pons [46])?
Its Drug uptake is 3.15.

And the Drug uptake [47]?
The Drug uptake was 2.52.

And the Drug uptake (Putamen [48])?
The Drug uptake was 5.

What about the Drug uptake [49] of the same compound?
Its Drug uptake is 2.66.

What about the Drug uptake (Caudate [50]) of the same compound?
The Drug uptake was 3.28.
